According to US20240415814A1, “PHARMACEUTICAL COMPOSITION COMPRISING 1-(3-CYANO-1-ISOPROPYL-INDOL-5-YL)PYRAZOLE-4-CARBOXYLIC ACID” (LG CHEM, LTD., priority 2021, published 2024):
Where two headings read alike, the source gives them in different places.

How the values were obtained:
Format in all cases: in vivo, human
[1] = Pharmacokinetics according to renal function of patients; settings: for AUC(0-t) / AUC / Cmax: both sexes, human, plasma, oral, 200 mg, 200 mg once daily, Day 7, plasma; for AUC(0-t): read-out: AUC0-t (AUC0-48 h), geometric LS mean; for AUC: read-out: AUCtau, geometric LS mean; for Cmax: read-out: Cmax, ss, geometric LS mean
Protocol: (§1) PK and PD of the compound of Example 1 were assessed under patient groups with various degrees of renal function. […] A total of 37 patients were classified into 4 groups as follows based on renal function according to eGFR which was calculated by MDRD formula: • Normal: eGFR≥90 mL/min/1.73 m^2, n=13 • Mild (mild renal function impairment): eGFR 60-less than 90 mL/min/1.73 m^2, n=8 • Moderate (moderate renal function impairment): eGFR 30-less than 60 mL/min/1.73 m^2, n=8 • Severe (severe renal function impairment): eGFR<30 mL/min/1.73 m^2 and not on hemodialysis, n=8
(§2) Blood and urine samples were collected before dosing and up to 24 or 48 hours after the final dosing for PK/PD assessment.
For the compound of Example 1, statistical analysis of pharmacokinetic parameters using an ANOVA model for the pharmacokinetic population is shown in Table 2 below. The ANOVA model was fitted to the log-transformed PK parameters, with renal function impairment group fitted as a fixed effect. Point estimates and 90% CIs for differences between the least square means on the log scale were exponentiated to express the results as ratios of geometric means and CIs on the original scale.

[2] = Phase 2 clinical trial: analysis of TEAEs
Protocol: Selected patients gave written informed consent according to institutional and study procedures. After screening and wash-out processes (days 26 to 33 pre-dose), a total of 156 patients were finally enrolled, and each patient was randomly assigned to 5 groups of 50 mg, 100 mg and 200 mg dosing groups of the compound of Example 1, a placebo group, and a febuxostat group. Patients in each group self-administered 1 tablet of a combination drug (colchicine, 0.6 mg/day) for the prevention of gout flare along with the assigned investigational drug (50 mg, 100 mg and 200 mg doses of the compound of Example 1, placebo, and 40 mg of febuxostat group) orally, once every morning, at about the same time each day, with water, regardless of food.
When ULT is performed using a xanthine oxidase inhibitor compound, since there is a high possibility of gout flare as the tophi dissolves at the end of the bone during the initial treatment period, it was designed to be used in combination with colchicine for the purpose of inhibiting it. The drug was administered for 84 days by setting the first dosing day of the drug as day 1, and basic tests, serum uric acid concentration and the like were measured at clinic visits on 14 days (week 2), 28 days (week 4), 56 days (week 8), and 84 days (week 12) during the dosing period to determine whether TEAEs occurred. After the end of drug administration, a safety follow-up was performed for an additional 2 weeks (98 days, week 14).
Among all patient groups participating in the clinical trial, although the administration was stopped for 3 patients due to headache, gout flare in the left ankle, and liver dysfunction in the 100 mg dosing group of Example 1 and for 1 patient due to an increase in hepatic enzyme in the 200 mg dosing group, no significant treatment emergency adverse event (TEAE) was found in the remaining patient groups.

[3] = tested on: serum uric acid; experiment: Pharmacodynamics (serum uric acid) according to renal function of patients; settings: for AUEC0-24 of serum uric acid (baseline corrected), geometric LS mean / Cmean, 24 of serum uric acid (baseline corrected), geometric LS mean / Emax of serum uric acid (baseline corrected), geometric LS mean: 200 mg once daily, Day 7
Protocol: as §1, §2
An analysis of variance (ANOVA) model was fitted to the log-transformed baseline corrected PD parameters, with renal function impairment group fitted as a fixed effect. Point estimates and 90% CIs for differences between the least square means on the log scale were exponentiated to express the results as ratios of geometric means and CIs on the original scale.

[4] = normal renal function (control)

In the case of `CC(C)n1cc(C#N)c2cc(-n3cc(C(=O)O)cn3)ccc21` [Example 1, 1-(3-cyano-1-isopropyl-indol-5-yl)pyrazol-4-carboxylic acid], the “AUC0-t, ratio of geometric LS means” value ([1]; Mild/Normal) is reported as 1.23, the “AUCtau, ratio of geometric LS means” value ([1]; Mild/Normal) is reported as 1.23 and the “Cmax, ss, ratio of geometric LS means” value ([1]; Mild/Normal) is reported as 1.32. For the same compound, the “AUC0-t, ratio of geometric LS means” value ([1]; Moderate/Normal) was 1.19, the “AUCtau, ratio of geometric LS means” value ([1]; Moderate/Normal) was 1.17 and the “Cmax, ss, ratio of geometric LS means” value ([1]; Moderate/Normal) was 1.15. The “AUC0-t, ratio of geometric LS means” value ([1]; Severe/Normal) was 1.16, the “AUCtau, ratio of geometric LS means” value ([1]; Severe/Normal) was 1.26 and the “Cmax, ss, ratio of geometric LS means” value ([1]; Severe/Normal) was 0.885. For the same compound, the AUC(0-t) ([1]; mild impairment) was 36500 ng·h/mL, the AUC ([1]; mild impairment) was 38100 ng·h/mL and the Cmax ([1]; mild impairment) was 7460 ng/mL. The AUC(0-t) ([1]; moderate impairment) was 35200 ng·h/mL, the AUC ([1]; moderate impairment) was 36100 ng·h/mL and the Cmax ([1]; moderate impairment) was 6490 ng/mL. The AUC(0-t) [1, 4] was 29700 ng·h/mL, the AUC [1, 4] was 30900 ng·h/mL and the Cmax [1, 4] was 5640 ng/mL. For the same compound, the AUC(0-t) ([1]; severe impairment) was 34300 ng·h/mL, the AUC ([1]; severe impairment) was 38900 ng·h/mL and the Cmax ([1]; severe impairment) was 4990 ng/mL. The “incidence of TEAEs” value ([2]; 50 mg, 100 mg and 200 mg groups versus placebo and febuxostat groups) was “showed no difference from the placebo group and the febuxostat group in the overall TEAE”, the “patients for whom administration was stopped (headache, gout flare in the left ankle, liver dysfunction)” value ([2]; 100 mg dosing group) was 3 patients and the “patients for whom administration was stopped (increase in hepatic enzyme)” value ([2]; 200 mg dosing group) was 1 patient. For the same compound, the “AUEC0-24, ratio of geometric LS means” value ([3]; Mild/Normal) was 0.980, the “Cmean, 24, ratio of geometric LS means” value ([3]; Mild/Normal) was 0.988 and the “Emax, ratio of geometric LS means” value ([3]; Mild/Normal) was 0.979. The “AUEC0-24, ratio of geometric LS means” value ([3]; Moderate/Normal) was 1.02, the “Cmean, 24, ratio of geometric LS means” value ([3]; Moderate/Normal) was 1.03 and the “Emax, ratio of geometric LS means” value ([3]; Moderate/Normal) was 1.02. The “AUEC0-24, ratio of geometric LS means” value ([3]; Severe/Normal) was 1.05, the “Cmean, 24, ratio of geometric LS means” value ([3]; Severe/Normal) was 1.03 and the “Emax, ratio of geometric LS means” value ([3]; Severe/Normal) was 0.911. The “GLSMRs for Cmean,24, Emax and AUEC0-24 of sUA” value ([3]; across all renal function impairment groups versus normal) was “approximately 1”, the AUEC0-24 of serum uric acid (baseline corrected), geometric LS mean ([3]; mild impairment) was 111 mg·h/dL and the “Cmean, 24 of serum uric acid (baseline corrected), geometric LS mean” value (shortened to “Cmean, 24 of serum uric acid”) ([3]; mild impairment) was 4.53 mg/dL. For the same compound, the “Emax of serum uric acid (baseline corrected), geometric LS mean” value (“Emax of serum uric acid” for short) ([3]; mild impairment) was 4.43 mg/dL, the AUEC0-24 of serum uric acid (baseline corrected), geometric LS mean ([3]; moderate impairment) was 115 mg·h/dL and the “Cmean, 24 of serum uric acid” value ([3]; moderate impairment) was 4.74 mg/dL. The “Emax of serum uric acid” value ([3]; moderate impairment) was 4.63 mg/dL, the AUEC0-24 of serum uric acid (baseline corrected), geometric LS mean [3, 4] was 113 mg·h/dL and the “Cmean, 24 of serum uric acid” value [3, 4] was 4.59 mg/dL. The “Emax of serum uric acid” value [3, 4] was 4.52 mg/dL, the AUEC0-24 of serum uric acid (baseline corrected), geometric LS mean ([3]; severe impairment) was 119 mg·h/dL and the “Cmean, 24 of serum uric acid” value ([3]; severe impairment) was 4.72 mg/dL. For the same compound, the “Emax of serum uric acid” value ([3]; severe impairment) was 4.12 mg/dL.
